In ChEMBL document CHEMBL4145655, “Confirmation of the Revised Structure of Samoquasine A and a Proposed Structural Revision of Cherimoline” (2018):
Activity calls are given as the source filed them. The calls are words filed in the database; no cut-off is given here.

Tests used:
[1] = test system: Panel NCI-60 (60 carcinoma cell lines); experiment: Cytotoxicity against human NCI60 cells at 10 uM after 48 hrs by sulforhodamine B assay; assay type: functional, cell-based
[2] = test system: NUGC; experiment: Growth inhibition of human NUGC cells at 50 ug/ml relative to control; assay type: functional; conditions: read-out: GI
[3] = test system: HONE1 cell line; experiment: Growth inhibition of human HONE1 cells at 50 ug/ml relative to control; assay type: functional; conditions: read-out: GI

Row | SMILES | Activity [1] | inhibition of growth at 50 µg/mL [2] | inhibition of growth at 50 µg/mL [3]
1 | O=c1[nH]ccc2c1cnc1ccccc12 | inactive | 63% | 62%
2 | O=c1occc2c1cnc1ccccc12 | inactive |  | 
3 | Cn1ccc2c(cnc3ccccc32)c1=O | inactive |  | 
